Test: Purity of filtrates / degradation in bio-relevant media (FeSSIF)
Type: physicochemical
Conditions: for HPLC Purity API, Sample 1 / impurity RRT 1.74 / impurity RRT 1.91 / impurity RRT 1.95 / HPLC Purity API, Sample 2 / impurity RRT 1.09: FeSSIF filtrate, 220 nm; for HPLC Purity API, Sample 1 / impurity RRT 1.74 / impurity RRT 1.91 / impurity RRT 1.95 / impurity RRT 1.09: Sample 1; for Filtrate Purity 220 nm-24 h: 37° C., starting purity 99.26%
Experimental: About 15 mg of freebase Form II was weighed into sample vials, and then 3 mL of each media was added to make suspensions, respectively. At 0.5, 2 and 24 hours, about 1 mL of each suspension was filtered, the filtrate was analyzed by HPLC and pH, and the filter cake was analyzed by XRPD. Duplicated samples were prepared for each media.
Compared to control pH buffers, the solubility increased to ˜20 μg/mL in FaSSIF and ˜100 μg/mL in FeSSIF, possibly due to the solubilization effect of bile salt. […] Compared to FaSSIF, concentration of bile salt is 5-fold in FeSSIF. The degradation issue in FeSSIF was confirmed with another two batches (Lot #3 and Lot #2) of freebase Form II at 0.5-8 hours, as summarized in Table 12 and Table 13. Several impurities increased rapidly with time.
HPLC analysis was performed with an Agilent HPLC 1260 series instrument.

- purity of filtrates (FeSSIF): decreased rapidly
- HPLC Purity API, Sample 1 (0.5 hr, listed as Lot# 2): 96.72 area %
- impurity RRT 1.74 (0.5 hr, listed as Lot# 2): 0.33 area %
- impurity RRT 1.91 (0.5 hr, listed as Lot# 2): 1.00 area %
- impurity RRT 1.95 (0.5 hr, listed as Lot# 2): 0.32 area %
- HPLC Purity API, Sample 1 (0.5 hr, listed as Lot# 3): 92.74 area %
- impurity RRT 1.74 (0.5 hr, listed as Lot# 3): 0.27 area %
- impurity RRT 1.91 (0.5 hr, listed as Lot# 3): 0.72 area %
- impurity RRT 1.95 (0.5 hr, listed as Lot# 3): 0.24 area %
- HPLC Purity API, Sample 2 (0.5 hr, listed as Lot# 2): 96.89 area %
- HPLC Purity API, Sample 2 (0.5 hr, listed as Lot# 3): 92.57 area %
- HPLC Purity API, Sample 1 (2 hr, listed as Lot# 2): 80.67 area %
- impurity RRT 1.09 (2 hr, listed as Lot# 2): 1.18 area %
- impurity RRT 1.74 (2 hr, listed as Lot# 2): 1.52 area %
- impurity RRT 1.91 (2 hr, listed as Lot# 2): 5.63 area %
- impurity RRT 1.95 (2 hr, listed as Lot# 2): 0.89 area %
- HPLC Purity API, Sample 1 (2 hr, listed as Lot# 3): 91.52 area %
- impurity RRT 1.09 (2 hr, listed as Lot# 3): 0.22 area %
- impurity RRT 1.74 (2 hr, listed as Lot# 3): 0.35 area %
- impurity RRT 1.91 (2 hr, listed as Lot# 3): 1.09 area %
- impurity RRT 1.95 (2 hr, listed as Lot# 3): 0.39 area %
- HPLC Purity API, Sample 2 (2 hr, listed as Lot# 2): 77.22 area %
- HPLC Purity API, Sample 2 (2 hr, listed as Lot# 3): 90.33 area %
- HPLC Purity API, Sample 1 (4 hr, listed as Lot# 2): 65.06 area %
- impurity RRT 1.09 (4 hr, listed as Lot# 2): 3.56 area %
- impurity RRT 1.74 (4 hr, listed as Lot# 2): 2.64 area %
- impurity RRT 1.91 (4 hr, listed as Lot# 2): 9.12 area %
- impurity RRT 1.95 (4 hr, listed as Lot# 2): 1.67 area %
- HPLC Purity API, Sample 1 (4 hr, listed as Lot# 3): 84.44 area %
- impurity RRT 1.09 (4 hr, listed as Lot# 3): 1.00 area %
- impurity RRT 1.74 (4 hr, listed as Lot# 3): 0.82 area %
- impurity RRT 1.91 (4 hr, listed as Lot# 3): 3.55 area %
- impurity RRT 1.95 (4 hr, listed as Lot# 3): 0.69 area %
- HPLC Purity API, Sample 2 (4 hr, listed as Lot# 2): 60.63 area %
- HPLC Purity API, Sample 2 (4 hr, listed as Lot# 3): 77.77 area %
- HPLC Purity API, Sample 1 (8 hr, listed as Lot# 2): 50.99 area %
- impurity RRT 1.09 (8 hr, listed as Lot# 2): 6.24 area %
- impurity RRT 1.74 (8 hr, listed as Lot# 2): 5.16 area %
- impurity RRT 1.91 (8 hr, listed as Lot# 2): 8.77 area %
- impurity RRT 1.95 (8 hr, listed as Lot# 2): 3.62 area %
- HPLC Purity API, Sample 1 (8 hr, listed as Lot# 3): 66.91 area %
- impurity RRT 1.09 (8 hr, listed as Lot# 3): 4.10 area %
- impurity RRT 1.74 (8 hr, listed as Lot# 3): 2.41 area %
- impurity RRT 1.91 (8 hr, listed as Lot# 3): 7.91 area %
- impurity RRT 1.95 (8 hr, listed as Lot# 3): 1.57 area %
- HPLC Purity API, Sample 2 (8 hr, listed as Lot# 2): 47.77 area %
- HPLC Purity API, Sample 2 (8 hr, listed as Lot# 3): 57.55 area %
- Filtrate Purity 220 nm-24 h (FeSSIF): 55%
- Filtrate Purity 220 nm-24 h (SGF): 99.28%
Structure (SMILES): CNC(=O)c1ccc(N2CCN(Cc3cnc4cc(C5CC5)c(=O)[nH]c4c3)CC2)cn1 [Freebase Form II, 5-(4-((7-cyclopropyl-6-oxo-5,6-dihydro-1,5-naphthyridin-3-yl)methyl)piperazin-1-yl)-N-methylpicolinamide]
